This test relates to P388 leukemia ip, CD2F1 mice, survival T/C. The test can be described thus: NCI In Vivo Anticancer Drug Screen. Data for tumor model P388 Leukemia (intraperitoneal) in CD2F1 (CDF1) mice. To be noted: endpoint: median survival time, higher = longer survival. In outline:
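Mice carrying the transplanted tumor received test compound or vehicle. Survival was recorded in each group, and the value is the treated-group measurement divided by that of the vehicle-treated control group.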

[1] abbreviates: dose: 50.0 mg/kg/injection, schedule: Q01DX009 (ip), vehicle: Klucel (hydroxypropylcellulose) (HPC).
Setting [2] is: dose: 100.0 mg/kg/injection, schedule: Q01DX009 (ip), vehicle: Klucel (hydroxypropylcellulose) (HPC).
Setting [3] is: dose: 100.0 mg/kg/injection, schedule: Q04DX003 (ip), vehicle: saline with Tween-80.
The mark [4] stands for this setting: dose: 200.0 mg/kg/injection, schedule: Q04DX003 (ip), vehicle: saline with Tween-80.
Where [5] appears, read: dose: 200.0 mg/kg/injection, schedule: Q01DX009 (ip), vehicle: Klucel (hydroxypropylcellulose) (HPC).
The mark [6] stands for this setting: dose: 25.0 mg/kg/injection, schedule: Q01DX009 (ip), vehicle: Klucel (hydroxypropylcellulose) (HPC).
Setting [7] is: dose: 50.0 mg/kg/injection, schedule: Q01DX009 (ip), vehicle: saline with Tween-80.

SMILES strings stand for the structures. Values joined by “and” are separate entries in the source; they are usually repeats but may differ in a detail not shown here. Equal values may be shown once. Inconclusive results and toxic doses are left out.

In the case of `CCN(CC)CCCC(CO)Nc1ccnc2cc(Cl)ccc12` (configuration not stated), the T/C under setting [1] was 104 % of control and 100 % of control; the T/C under setting [2] was 96 % of control and 98 % of control.

Turning to `COc1cccc2c1C(=O)c1c(O)c3c(c(O)c1C2=O)C[C@@](O)(C(C)=O)C[C@@H]3OC1CC(NCc2ccccc2)C(O)C(C)O1` (some centres not stated), the T/C is 114 % of control (dose: 0.78 mg/kg/injection, schedule: Q01DX009 (ip), vehicle: water); 161 % of control and 162 % of control (dose: 1.56 mg/kg/injection, schedule: Q01DX009 (ip), vehicle: water); 106 % of control (dose: 2.35 mg/kg/injection, schedule: Q04DX003 (ip), vehicle: water); 166 % of control and 185 % of control (dose: 3.13 mg/kg/injection, schedule: Q01DX009 (ip), vehicle: water); 166 % of control (dose: 6.48 mg/kg/injection, schedule: Q04DX003 (ip), vehicle: water); 153 % of control (dose: 9.4 mg/kg/injection, schedule: Q04DX003 (ip), vehicle: water). Moreover, the T/C is 204 % of control (dose: 10.8 mg/kg/injection, schedule: Q04DX003 (ip), vehicle: water); 94 % of control (dose: 12.5 mg/kg/injection, schedule: Q01DX009 (ip), vehicle: water); 115 % of control (dose: 18.0 mg/kg/injection, schedule: Q04DX003 (ip), vehicle: water); 169 % of control (dose: 18.8 mg/kg/injection, schedule: Q04DX003 (ip), vehicle: water); 116 % of control (dose: 37.5 mg/kg/injection, schedule: Q04DX003 (ip), vehicle: water); 95 % of control (dose: 75.0 mg/kg/injection, schedule: Q04DX003 (ip), vehicle: water).

In the case of `Nc1ccc2oc3ccccc3c2c1`, the T/C reads like this: under setting [3], 100 % of control; under setting [4], 103 % of control.

For the compound `CC(C)(CBr)COP1(=O)NCC(C)(C)CO1` (configuration not stated), the T/C (dose: 50.0 mg/kg/injection, schedule: Q01DX005 (ip), vehicle: Klucel (hydroxypropylcellulose) (HPC)) is 106 % of control; the T/C (dose: 100.0 mg/kg/injection, schedule: Q01DX005 (ip), vehicle: Klucel (hydroxypropylcellulose) (HPC)) is 105 % of control; the T/C (dose: 200.0 mg/kg/injection, schedule: Q01DX005 (ip), vehicle: Klucel (hydroxypropylcellulose) (HPC)) is 106 % of control.

For `Cc1[nH]c2ccc(N(C)C)cc2c(=O)c1CN1CCCCC1`, the T/C is, setting by setting: under setting [1], 106 % of control; under setting [2], 100 % of control; under setting [5], 108 % of control.

In the case of `CC1CN1P(=O)(N1CC2CCC(CC2)C1)N1CC1C` (configuration not stated), the T/C by setting is: (dose: 6.25 mg/kg/injection, schedule: Q01DX009 (ip), vehicle: saline) 109 % of control; (dose: 12.5 mg/kg/injection, schedule: Q01DX009 (ip), vehicle: saline) 95 % of control; (dose: 25.0 mg/kg/injection, schedule: Q01DX009 (ip), vehicle: saline) 104 % of control; under setting [3], 122 % of control; under setting [4], 90 % of control.

In the case of `COc1ccc([N+](=O)[O-])c(C#N)c1`, the T/C runs as follows: (dose: 100.0 mg/kg/injection, schedule: Q04DX003 (ip), vehicle: saline) 98 % of control; (dose: 200.0 mg/kg/injection, schedule: Q04DX003 (ip), vehicle: saline) 93 % of control; (dose: 400.0 mg/kg/injection, schedule: Q04DX003 (ip), vehicle: saline) 100 % of control.

In the case of `O=C(O)Cc1cc(Br)c(O)c(Br)c1`, the T/C (dose: 12.5 mg/kg/injection, schedule: Q01DX009 (ip), vehicle: distilled water + Tween-80) is 107 % of control; the T/C (dose: 25.0 mg/kg/injection, schedule: Q01DX009 (ip), vehicle: distilled water + Tween-80) is 107 % of control; the T/C (dose: 50.0 mg/kg/injection, schedule: Q01DX009 (ip), vehicle: distilled water + Tween-80) is 98 % of control; the T/C (dose: 100.0 mg/kg/injection, schedule: Q01DX009 (ip), vehicle: distilled water + Tween-80) was 98 % of control; the T/C (dose: 200.0 mg/kg/injection, schedule: Q01DX009 (ip), vehicle: distilled water + Tween-80) is 100 % of control.

For `OCc1c(Cl)n(-c2ccccc2)c2ccccc12`, the T/C (dose: 100.0 mg/kg/injection, schedule: Q04DX002 (ip), vehicle: Klucel (hydroxypropylcellulose) (HPC)) was 96 % of control and the T/C (dose: 400.0 mg/kg/injection, schedule: Q04DX002 (ip), vehicle: Klucel (hydroxypropylcellulose) (HPC)) was 98 % of control.

Regarding `CCCCCn1cnc2cc(N3CCOCC3)c([N+](=O)[O-])cc2c1=O`, the T/C was 103 % of control (dose: 100.0 mg/kg/injection, schedule: Q04DX003 (ip), vehicle: Klucel (hydroxypropylcellulose) (HPC)); 96 % of control (dose: 200.0 mg/kg/injection, schedule: Q04DX003 (ip), vehicle: Klucel (hydroxypropylcellulose) (HPC)); 96 % of control (dose: 400.0 mg/kg/injection, schedule: Q04DX003 (ip), vehicle: Klucel (hydroxypropylcellulose) (HPC)).

As to `N#Cc1nc2c(nc1N)CCCCCCCCCC2`, the T/C under setting [6] was 94 % of control, the T/C under setting [1] was 94 % of control, the T/C under setting [2] is 92 % of control and the T/C under setting [5] was 100 % of control.

With `COc1ccc(Oc2c(OC)cc(NCc3ccc(CN)cc3)c3ncccc23)cc1`, the T/C is 110 % of control (dose: 12.5 mg/kg/injection, schedule: Q01DX009 (ip), vehicle: saline with Tween-80); 109 % of control (dose: 25.0 mg/kg/injection, schedule: Q01DX009 (ip), vehicle: saline with Tween-80); 109 % of control under setting [7].

`COc1cccc2c1C(=O)c1c(O)c3c(c(O)c1C2=O)C[C@@](O)(/C(C)=N\NC=O)C[C@@H]3OC1CC(N)C(O)C(C)O1` (some centres not stated): the T/C reads like this: (dose: 0.65 mg/kg/injection, schedule: Q01DX009 (ip), vehicle: saline) 150 % of control; (dose: 1.08 mg/kg/injection, schedule: Q01DX009 (ip), vehicle: saline) 150 % of control; (dose: 1.8 mg/kg/injection, schedule: Q01DX009 (ip), vehicle: saline) 159 % of control; (dose: 3.0 mg/kg/injection, schedule: Q01DX009 (ip), vehicle: saline) 163 % of control; (dose: 3.0 mg/kg/injection, schedule: Q04DX003 (ip), vehicle: saline) 150 % of control; (dose: 5.0 mg/kg/injection, schedule: Q01DX009 (ip), vehicle: saline) 163 % of control. Further, the T/C is 154 % of control (dose: 5.0 mg/kg/injection, schedule: Q04DX003 (ip), vehicle: saline); 154 % of control (dose: 8.0 mg/kg/injection, schedule: Q01DX001 (ip), vehicle: saline); 177 % of control (dose: 8.0 mg/kg/injection, schedule: Q01DX009 (ip), vehicle: saline); 172 % of control (dose: 8.0 mg/kg/injection, schedule: Q04DX003 (ip), vehicle: saline); 154 % of control (dose: 13.3 mg/kg/injection, schedule: Q01DX001 (ip), vehicle: saline); 172 % of control (dose: 22.2 mg/kg/injection, schedule: Q01DX001 (ip), vehicle: saline). The T/C (dose: 22.2 mg/kg/injection, schedule: Q04DX003 (ip), vehicle: saline) is 190 % of control and the T/C (dose: 37.0 mg/kg/injection, schedule: Q01DX001 (ip), vehicle: saline) was 181 % of control.

For the compound `O=C(Cc1nc(-c2ccc(Cl)cc2)no1)c1ccccc1`, the T/C runs as follows: under setting [7], 91 % of control; (dose: 100.0 mg/kg/injection, schedule: Q01DX009 (ip), vehicle: saline with Tween-80) 87 % of control.

Take `CC[C@@H]1O[C@H]2O[C@@H](/C=C/C=C/C=C/c3oc(=O)cc(OC)c3C)[C@@H](O)[C@@]2(C)[C@]1(C)O`: the T/C reads like this: (dose: 0.5 mg/kg/injection, schedule: Q01DX009 (ip), vehicle: Klucel (hydroxypropylcellulose) (HPC)) 107 % of control; (dose: 1.0 mg/kg/injection, schedule: Q01DX009 (ip), vehicle: Klucel (hydroxypropylcellulose) (HPC)) 106 % of control; (dose: 2.0 mg/kg/injection, schedule: Q01DX009 (ip), vehicle: Klucel (hydroxypropylcellulose) (HPC)) 98 % of control.

For the compound `CC(C)Sc1ncn[nH]1`, the T/C was 99 % of control (dose: 50.0 mg/kg/injection, schedule: Q01DX005 (ip), vehicle: saline); 100 % of control (dose: 100.0 mg/kg/injection, schedule: Q01DX005 (ip), vehicle: saline); 102 % of control (dose: 200.0 mg/kg/injection, schedule: Q01DX005 (ip), vehicle: saline).

Take `COc1ccc(N=C([Se])CCC(C)C)cc1`: the T/C is 111 % of control (dose: 6.25 mg/kg/injection, schedule: Q01DX009 (ip), vehicle: Klucel (hydroxypropylcellulose) (HPC)); 106 % of control (dose: 12.5 mg/kg/injection, schedule: Q01DX009 (ip), vehicle: Klucel (hydroxypropylcellulose) (HPC)); 108 % of control under setting [6].

Values taken from PubChem BioAssay AID330 (DTP/NCI, 2004).
